24 compounds from patent US9586951B2 (FUJIFILM Corporation, priority 2013, dated 2017) can be followed below.

One experiment concerns the target T1, ATM (Homo sapiens, UniProt Q13315).
T1 construct: detecting phosphorylation of Chk2 in a human non-small cell lung cancer cell line NCI-H460 (ATCC company); host or cells: NCI-H460 human non-small cell lung cancer cells
The experiment in a line: ATM inhibition test (phosphorylation of Chk2 generated by ionizing radiation, AlphaScreen SureFire). As to conditions: phosphorylated Chk2 in NCI-H460 cells, ionizing radiation 8Gy, 1 hour after test compound treatment; read-out: ATM inhibitory activity. Type of experiment: cell-based. Put shortly: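 In NCI-H460 cells, radiation-triggered Chk2 phosphorylation (8Gy, 1 h) is detected by AlphaScreen SureFire following 1 h compound exposure.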
On the technique in general: In Alpha technology, singlet oxygen from a donor bead excites a nearby acceptor bead.

The subject of experiment [1] is human non-small cell lung cancer cell line NCI-H460. The experiment in a line: Cell proliferation inhibition test by sensitivity-enhancing to ionizing radiation (Cell Titer Glo). Type of experiment: cell-based. As to conditions: concentration in which SER became 2, NCI-H460 cells, ionizing radiation 2 Gy, cultured 120 hour. Put shortly: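 Radiosensitisation measured as SER, a ratio of Cell Titer Glo luminescence in irradiated vs unirradiated plates relative to DMSO; SER2, the concentration yielding SER 2, came from sigmoidal regression. Compound (0.1% DMSO) was given 24 h post-seeding, 2 Gy applied 30 min later, then 120 hour culture at 37° C.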
(In general: In ATP-based viability assays light output follows the ATP content of the culture.)

Bounds are passed on as bounds.

T1 sequence (Q13315 whole entry): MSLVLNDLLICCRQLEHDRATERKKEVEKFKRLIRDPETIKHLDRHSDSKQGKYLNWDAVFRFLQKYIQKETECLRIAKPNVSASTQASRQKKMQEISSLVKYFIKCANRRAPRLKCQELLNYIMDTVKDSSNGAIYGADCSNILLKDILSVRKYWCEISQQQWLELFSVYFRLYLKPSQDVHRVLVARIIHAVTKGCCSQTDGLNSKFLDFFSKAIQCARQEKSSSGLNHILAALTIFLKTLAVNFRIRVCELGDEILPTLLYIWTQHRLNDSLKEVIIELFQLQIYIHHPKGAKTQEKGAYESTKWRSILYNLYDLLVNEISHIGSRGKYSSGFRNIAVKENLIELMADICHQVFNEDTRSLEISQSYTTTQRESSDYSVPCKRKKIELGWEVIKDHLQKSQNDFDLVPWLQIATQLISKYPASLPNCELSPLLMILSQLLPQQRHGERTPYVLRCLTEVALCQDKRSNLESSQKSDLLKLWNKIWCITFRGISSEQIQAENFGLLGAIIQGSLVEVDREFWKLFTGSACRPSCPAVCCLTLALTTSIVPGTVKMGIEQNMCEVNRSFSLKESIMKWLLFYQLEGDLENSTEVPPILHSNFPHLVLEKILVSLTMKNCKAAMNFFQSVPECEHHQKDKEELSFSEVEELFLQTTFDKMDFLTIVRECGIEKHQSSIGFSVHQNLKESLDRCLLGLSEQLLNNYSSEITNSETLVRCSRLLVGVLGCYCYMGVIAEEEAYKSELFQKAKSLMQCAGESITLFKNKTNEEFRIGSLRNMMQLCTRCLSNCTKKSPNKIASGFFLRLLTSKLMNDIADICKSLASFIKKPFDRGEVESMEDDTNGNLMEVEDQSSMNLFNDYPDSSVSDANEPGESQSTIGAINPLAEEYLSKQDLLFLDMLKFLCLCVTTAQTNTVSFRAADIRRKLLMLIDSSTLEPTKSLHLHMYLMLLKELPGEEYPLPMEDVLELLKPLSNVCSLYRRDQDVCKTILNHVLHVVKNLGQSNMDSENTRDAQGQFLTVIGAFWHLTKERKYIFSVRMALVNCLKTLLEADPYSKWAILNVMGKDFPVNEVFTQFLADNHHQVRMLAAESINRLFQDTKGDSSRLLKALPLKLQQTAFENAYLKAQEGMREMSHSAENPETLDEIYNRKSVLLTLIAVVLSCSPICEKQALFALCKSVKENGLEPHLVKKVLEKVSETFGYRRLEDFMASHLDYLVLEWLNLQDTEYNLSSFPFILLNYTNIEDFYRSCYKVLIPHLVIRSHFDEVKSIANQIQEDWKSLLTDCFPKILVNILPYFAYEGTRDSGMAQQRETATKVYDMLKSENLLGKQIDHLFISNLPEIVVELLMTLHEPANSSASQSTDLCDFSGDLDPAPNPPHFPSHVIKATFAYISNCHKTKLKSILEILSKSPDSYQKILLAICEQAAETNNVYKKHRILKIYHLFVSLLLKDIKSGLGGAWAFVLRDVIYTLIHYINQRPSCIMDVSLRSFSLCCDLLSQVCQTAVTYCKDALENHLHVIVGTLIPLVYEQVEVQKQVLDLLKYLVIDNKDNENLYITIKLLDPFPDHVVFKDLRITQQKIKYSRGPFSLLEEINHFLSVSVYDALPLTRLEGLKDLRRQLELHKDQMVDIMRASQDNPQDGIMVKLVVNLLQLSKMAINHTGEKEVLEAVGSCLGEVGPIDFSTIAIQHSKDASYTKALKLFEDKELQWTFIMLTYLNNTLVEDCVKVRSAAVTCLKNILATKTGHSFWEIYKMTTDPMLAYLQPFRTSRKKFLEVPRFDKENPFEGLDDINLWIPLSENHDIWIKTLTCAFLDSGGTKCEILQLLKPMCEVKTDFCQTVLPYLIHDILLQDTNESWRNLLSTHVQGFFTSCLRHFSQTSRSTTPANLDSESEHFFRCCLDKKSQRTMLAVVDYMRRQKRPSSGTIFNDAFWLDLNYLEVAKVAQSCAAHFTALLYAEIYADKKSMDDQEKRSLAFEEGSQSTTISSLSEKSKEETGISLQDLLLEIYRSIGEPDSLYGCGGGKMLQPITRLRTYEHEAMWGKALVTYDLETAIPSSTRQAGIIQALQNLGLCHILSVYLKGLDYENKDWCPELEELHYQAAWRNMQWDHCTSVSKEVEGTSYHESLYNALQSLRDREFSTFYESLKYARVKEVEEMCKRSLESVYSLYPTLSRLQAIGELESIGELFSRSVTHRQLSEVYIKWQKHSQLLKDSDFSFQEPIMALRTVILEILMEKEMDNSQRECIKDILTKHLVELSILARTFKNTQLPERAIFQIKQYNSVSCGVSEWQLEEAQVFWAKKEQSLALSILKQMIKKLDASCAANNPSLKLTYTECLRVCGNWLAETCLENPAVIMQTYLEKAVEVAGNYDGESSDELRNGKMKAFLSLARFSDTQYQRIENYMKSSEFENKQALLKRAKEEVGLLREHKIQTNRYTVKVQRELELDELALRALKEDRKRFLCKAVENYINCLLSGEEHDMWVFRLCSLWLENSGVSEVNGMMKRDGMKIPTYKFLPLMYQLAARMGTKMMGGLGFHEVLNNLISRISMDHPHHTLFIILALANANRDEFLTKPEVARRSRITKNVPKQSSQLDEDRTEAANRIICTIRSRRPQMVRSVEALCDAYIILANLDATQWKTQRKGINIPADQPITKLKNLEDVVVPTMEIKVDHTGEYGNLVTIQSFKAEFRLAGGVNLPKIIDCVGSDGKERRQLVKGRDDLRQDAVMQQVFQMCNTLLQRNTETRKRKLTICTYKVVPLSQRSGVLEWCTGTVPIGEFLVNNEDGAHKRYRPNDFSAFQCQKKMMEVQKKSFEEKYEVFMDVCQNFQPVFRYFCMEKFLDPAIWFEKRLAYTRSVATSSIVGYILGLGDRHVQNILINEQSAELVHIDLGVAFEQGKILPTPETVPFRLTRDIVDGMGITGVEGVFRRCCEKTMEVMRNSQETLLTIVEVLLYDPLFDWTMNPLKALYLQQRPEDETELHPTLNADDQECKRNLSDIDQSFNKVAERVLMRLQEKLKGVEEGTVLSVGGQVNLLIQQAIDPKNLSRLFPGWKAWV

For the compound `Cc1cccc(C(CCN(C)C)Nc2ccc3c(c2)Sc2cccc(-c4cc(N5CCOCC5)cc(=O)[nH]4)c2S3)n1` (single isomer, unassigned) [Example 1-22-11-1, 6-(7-((3-(dimethylamino)-1-(6-methylpyridin-2-yl)propyl)amino)thianthren-1-yl)-4-morpholinopyridin-2(1H)-one], the IC50 on ATM was less than 100 nM. The SER2 (concentration at which the radiation sensitivity-enhancement ratio reaches 2) in experiment [1] (Homo sapiens, NCI-H460, 120 h) fell in the range of 100 to 500 nM.

In the case of `O=c1cc(N2CCOCC2)cc(-c2cccc3c2Oc2ccc(NCc4cncc(-n5cccn5)c4)cc2S3)[nH]1` [Example 4-4-9, 6-(8-(((5-(1H-Pyrazol-1-yl)pyridin-3-yl)methyl)amino)phenoxathiin-4-yl)-4-morpholino pyridin-2(1H)-one], the IC50 at ATM was less than 100 nM. Further, the SER2 (concentration at which the radiation sensitivity-enhancement ratio reaches 2) in experiment [1] (Homo sapiens, NCI-H460, 120 h) lay in the range of 100 to 500 nM.

Take `Nc1ccc2c(c1)Sc1cccc(-c3cc(N4CCOCC4)cc(=O)[nH]3)c1S2` [Example 1-1, 6-(7-aminothianthren-1-yl)-4-morpholinopyridin-2(1H)-one]: on ATM, the IC50 is less than 100 nM. Besides, the SER2 (concentration at which the radiation sensitivity-enhancement ratio reaches 2) in experiment [1] (Homo sapiens, NCI-H460, 120 h) was in the range of 500 to 2000 nM.

On to `Cc1cncc(C(C)Nc2ccc3c(c2)Sc2cccc(-c4cc(N5CCOCC5)cc(=O)[nH]4)c2S3)n1` (stereo not drawn) [Example 1-12-73, 6-(7-((1-(6-Methylpyrazin-2-yl)ethyl)amino)thianthren-1-yl)-4-morpholino pyridin-2 (1H)-one], for which the IC50 at ATM was less than 100 nM. Moreover, in experiment [1] (Homo sapiens, NCI-H460, 120 h), the SER2 (concentration at which the radiation sensitivity-enhancement ratio reaches 2) is less than 100 nM.

For the compound `Cc1ccnc(CNc2ccc3c(c2)Sc2cccc(-c4cc(N5CCOCC5)cc(=O)[nH]4)c2S3)c1` [Example 1-12-5, 6-(7-(((4-Methylpyridin-2-yl)methyl)amino)thianthren-1-yl)-4-morpholino pyridin-2 (1H)-one], the IC50 at ATM was less than 100 nM. Besides, the SER2 (concentration at which the radiation sensitivity-enhancement ratio reaches 2) in experiment [1] (Homo sapiens, NCI-H460, 120 h) lay in the range of 100 to 500 nM.

`CN(C)c1cnc(CNc2ccc3c(c2)Sc2cccc(-c4cc(N5CCOCC5)cc(=O)[nH]4)c2O3)cn1` [Example 4-4-17, 6-(8-(((5-(Dimethylamino)pyrazin-2-yl)methyl)amino)phenoxathiin-4-yl)-4-morpholino pyridin-2(1H)-one]: the IC50 at ATM is less than 100 nM. Besides, in experiment [1] (Homo sapiens, NCI-H460, 120 h), the SER2 (concentration at which the radiation sensitivity-enhancement ratio reaches 2) was in the range of 100 to 500 nM.

On to `CC(CCN1CCOCC1)Nc1ccc2c(c1)Sc1cccc(-c3cc(N4CCOCC4)cc(=O)[nH]3)c1S2` (stereo not drawn) [Example 1-42-1, 4-Morpholino-6-(7-((4-morpholinobutan-2-yl)amino)thianthren-1-yl)pyridin-2(1H)-one], for which the IC50 at ATM is less than 100 nM. Moreover, the SER2 (concentration at which the radiation sensitivity-enhancement ratio reaches 2) in experiment [1] (Homo sapiens, NCI-H460, 120 h) lay within 100 to 500 nM.

With `Cc1cccc(C(Nc2ccc3c(c2)Sc2cccc(-c4cc(N5CCOCC5)cc(=O)[nH]4)c2S3)C2CCCN(C)C2)n1` (single isomer, unassigned) [Example 1-22-5, 6-(7-(((1-Methylpiperidin-3-yl)(6-methylpyridin-2-yl)methyl)amino)thianthren-1-yl)-4-morpholino pyridin-2 (1H)-one], the IC50 at ATM is less than 100 nM. Moreover, the SER2 (concentration at which the radiation sensitivity-enhancement ratio reaches 2) in experiment [1] lay in the range of 100 to 500 nM.

Consider `Cc1ccc(C(Nc2ccc3c(c2)Sc2cccc(-c4cc(N5CCOCC5)cc(=O)[nH]4)c2S3)C2CN(C)CCO2)nc1` (single isomer, unassigned) [Example 1-52-2, 6-(7-(((4-methylmorpholin-2-yl)(5-methylpyridin-2-yl)methyl)amino)thianthren-1-yl)-4-morpholinopyridin-2(1H)-one], for which the IC50 on ATM was less than 100 nM. For the same compound, the SER2 (concentration at which the radiation sensitivity-enhancement ratio reaches 2) in experiment [1] was less than 100 nM.

Turning to `COCC(Nc1ccc2c(c1)Cc1cccc(-c3cc(N4CCOCC4)cc(=O)[nH]3)c1O2)c1cccc(C)n1` (stereo not drawn) [Example 2-14-45, 6-(7-((2-Methoxy-1-(6-methylpyridin-2-yl)ethyl)amino)-9H-xanthen-4-yl)-4-morpholino pyridin-2 (1H)-one], the IC50 at ATM is less than 100 nM. Besides, in experiment [1] (Homo sapiens, NCI-H460, 120 h), the SER2 (concentration at which the radiation sensitivity-enhancement ratio reaches 2) fell in the range of 100 to 500 nM.

On to `Cc1cccc(C(C)Nc2ccc3c(c2)Cc2cccc(-c4cc(N5CCOCC5)cc(=O)[nH]4)c2O3)n1` (stereo not drawn) [Example 2-14-18, 6-(7-((1-(6-Methylpyridin-2-yl)ethyl)amino)-9H-xanthen-4-yl)-4-morpholino pyridin-2(1H)-one], for which the IC50 at ATM is 100 to 500 nM. Further, the SER2 (concentration at which the radiation sensitivity-enhancement ratio reaches 2) in experiment [1] (Homo sapiens, NCI-H460, 120 h) is 100 to 500 nM.

Take `CNc1ncc(CNc2ccc3c(c2)Sc2cccc(-c4cc(N5CCOCC5)cc(=O)[nH]4)c2S3)cn1` [Example 1-12-46, 6-(7-(((2-(Methylamino)pyrimidin-5-yl)methyl)amino)thianthren-1-yl)-4-morpholino pyridin-2(1H)-one]: the IC50 at ATM is less than 100 nM. Also, the SER2 (concentration at which the radiation sensitivity-enhancement ratio reaches 2) in experiment [1] (Homo sapiens, NCI-H460, 120 h) fell in the range of 100 to 500 nM.

On to `COC[C@H](CN1CCC(C(F)(F)F)CC1)Nc1ccc2c(c1)Sc1cccc(-c3cc(N4CCOCC4)cc(=O)[nH]3)c1S2` [Example 1-46-8, (S)-6-(7-((1-Methoxy-3-(4-(trifluoromethyl)piperidin-1-yl)propan-2-yl)amino)thianthren-1-yl)-4-morpholino pyridin-2(1H)-one], for which the IC50 at ATM was less than 100 nM. In experiment [1] (Homo sapiens, NCI-H460, 120 h), the SER2 (concentration at which the radiation sensitivity-enhancement ratio reaches 2) lay within 100 to 500 nM.

For the compound `Cc1ccnc(C(C)Nc2ccc3c(c2)Sc2cccc(-c4cc(N5CCOCC5)cc(=O)[nH]4)c2S3)c1` (single isomer, unassigned) [Example 1-12-135-2, 6-(7-((1-(4-methylpyridin-2-yl)ethyl)amino)thianthren-1-yl)-4-morpholinopyridin-2(1H)-one], the IC50 at ATM was less than 100 nM. Also, in experiment [1], the SER2 (concentration at which the radiation sensitivity-enhancement ratio reaches 2) lay in the range of 100 to 500 nM.

Consider `CN(C)c1ncc(CNc2ccc3c(c2)Cc2cccc(-c4cc(N5CCOCC5)cc(=O)[nH]4)c2O3)cn1` [Example 2-2-17, 6-(7-(((2-(Dimethylamino)pyrimidin-5-yl)methyl)amino)-9H-xanthen-4-yl)-4-morpholino pyridin-2(1H)-one], for which the IC50 on ATM is less than 100 nM. Further, in experiment [1] (Homo sapiens, NCI-H460, 120 h), the SER2 (concentration at which the radiation sensitivity-enhancement ratio reaches 2) fell in the range of 500 to 2000 nM.

As for `COc1ccnc(CNc2ccc3c(c2)Cc2cccc(-c4cc(N5CCOCC5)cc(=O)[nH]4)c2O3)n1` [Example 2-13-8, 6-(7-(((4-Methoxypyrimidin-2-yl)methyl)amino)-9H-xanthen-4-yl)-4-morpholino pyridin-2(1H)-one], the IC50 on ATM is less than 100 nM. In addition, in experiment [1] (Homo sapiens, NCI-H460, 120 h), the SER2 (concentration at which the radiation sensitivity-enhancement ratio reaches 2) lay within 500 to 2000 nM.

Take `Cc1ccc(C(Nc2ccc3c(c2)Sc2cccc(-c4cc(N5CCOCC5)cc(=O)[nH]4)c2S3)C2CCCN(C)C2)nc1` (stereo not drawn) [Example 1-22-10, 6-(7-(((1-Methylpiperidin-3-yl)(5-methylpyridin-2-yl)methyl)amino)thianthren-1-yl)-4-morpholino pyridin-2(1H)-one]: at ATM, the IC50 was less than 100 nM. Also, the SER2 (concentration at which the radiation sensitivity-enhancement ratio reaches 2) in experiment [1] (Homo sapiens, NCI-H460, 120 h) is 100 to 500 nM.

Consider `Cc1cnc(C(C)Nc2ccc3c(c2)Cc2cccc(-c4cc(N5CCOCC5)cc(=O)[nH]4)c2O3)cn1` (single isomer, unassigned) [Example 2-14-90-2, 6-(7-((1-(5-methylpyrazin-2-yl)ethyl)amino)-9H-xanthen-4-yl)-4-morpholinopyridin-2(1H)-one], for which the IC50 at ATM is less than 100 nM. Moreover, the SER2 (concentration at which the radiation sensitivity-enhancement ratio reaches 2) in experiment [1] (Homo sapiens, NCI-H460, 120 h) was less than 100 nM.

Turning to `COc1cc(CNc2ccc3c(c2)Cc2cccc(-c4cc(N5CCOCC5)cc(=O)[nH]4)c2O3)cnc1OC` [Example 2-2-35, 6-(7-(((5,6-Dimethoxypyridin-3-yl)methyl)amino)-9H-xanthen-4-yl)-4-morpholino pyridin-2(1H)-one], the IC50 at ATM is less than 100 nM. For the same compound, the SER2 (concentration at which the radiation sensitivity-enhancement ratio reaches 2) in experiment [1] (Homo sapiens, NCI-H460, 120 h) is 500 to 2000 nM.

For `O=c1cc(N2CCOCC2)cc(-c2cccc3c2Sc2ccc(NCCN4C5CCC4COC5)cc2S3)[nH]1` [Example 1-10-5, 6-(7-((2-(3-oxa-8-azabicyclo[3.2.1]octan-8-yl)ethyl)amino)thianthren-1-yl)-4-morpholinopyridin-2(1H)-one], on ATM, the IC50 was less than 100 nM. Besides, the SER2 (concentration at which the radiation sensitivity-enhancement ratio reaches 2) in experiment [1] (Homo sapiens, NCI-H460, 120 h) lay in the range of 100 to 500 nM.

On to `CCC(CN1CCOCC1)Nc1ccc2c(c1)Sc1cccc(-c3cc(N4CCOCC4)cc(=O)[nH]3)c1S2` (stereo not drawn) [Example 1-13-1, 4-Morpholino-6-(7-((1-morpholinobutan-2-yl)amino)thianthren-1-yl)pyridin-2(1H)-one], for which the IC50 at ATM was less than 100 nM. Moreover, in experiment [1] (Homo sapiens, NCI-H460, 120 h), the SER2 (concentration at which the radiation sensitivity-enhancement ratio reaches 2) lay in the range of 100 to 500 nM.

Regarding `COc1ccnc(CNc2ccc3c(c2)Sc2cccc(-c4cc(N5CCOCC5)cc(=O)[nH]4)c2S3)c1` [Example 1-12-4], the IC50 on ATM was less than 100 nM. Moreover, the SER2 (concentration at which the radiation sensitivity-enhancement ratio reaches 2) in experiment [1] (Homo sapiens, NCI-H460, 120 h) is 100 to 500 nM.

Regarding `Cc1cc(CNc2ccc3c(c2)Cc2cccc(-c4cc(N5CCOCC5)cc(=O)[nH]4)c2O3)ccn1` [Example 2-2-20, 6-(7-(((2-Methylpyridin-4-yl)methyl)amino)-9H-xanthen-4-yl)-4-morpholino pyridin-2(1H)-one], on ATM, the IC50 is less than 100 nM. The SER2 (concentration at which the radiation sensitivity-enhancement ratio reaches 2) in experiment [1] (Homo sapiens, NCI-H460, 120 h) fell in the range of 500 to 2000 nM.

As for `O=c1cc(N2CCOCC2)cc(-c2cccc3c2Sc2ccc(NCc4ccnc(Cl)c4)cc2S3)[nH]1` [Example 1-12-18], the IC50 is less than 100 nM on ATM and 100 to 500 nM in experiment [1] (read-out: SER2).
